This is an account of results in ChEMBL document CHEMBL4007488, “Amphiphilic Indole Derivatives as Antimycobacterial Agents: Structure-Activity Relationships and Membrane Targeting Properties” (J Med Chem, 2017).

The subject of assay [1] is Mycobacterium tuberculosis. Put plainly: Antimycobacterial activity against Mycobacterium tuberculosis H37Rv ATCC 27294 assessed as growth inhibition at 10 uM after 5 days relative to control. Conditions: H37Rv ATCC 27294, 120 h, read-out: GI. The class given is functional.
Assay [2] deals with Mycolicibacterium smegmatis. As to the kind of experiment: Antimycobacterial activity against Mycobacterium smegmatis MC2 155 ATCC 700084 assessed as growth inhibition at 10 uM after 5 days relative to control. The class given is functional. The following applies: MC2 155 ATCC 700084, 120 h, read-out: GI.

As for `CCCCCCCCn1cc(CN2CCN(CC)CC2)c2cc(F)ccc21`, the inhibition of growth at 10 µM in assay [1] and in assay [2] was 99% in each case.

As for `CCCCCCCCn1cc(CN2CCC3(CC2)OCCO3)c2cc(OC)ccc21`, the inhibition of growth at 10 µM in assay [1] and in assay [2] was 99% in each case.

On to `CCCCCCCCn1cc(CN2CCC(C)CC2)c2cc(OC)ccc21`, for which the inhibition of growth at 10 µM in assay [1] and in assay [2] was 99% each time.

For `CCCCCCCCn1cc(CN2CCCCC2)c2c(OC)cccc21`, the inhibition of growth at 10 µM in assay [1] and in assay [2] was 99% throughout.

As for `CC(C)=CCC/C(C)=C/Cn1cc(CN2CCCCC2)c2ccccc21`, the inhibition of growth at 10 µM in assay [1] and in assay [2] was 99% in each case.

Consider `CC(C)=CCC/C(C)=C/Cn1cc(CNC2CCCCCC2)c2cc(F)ccc21`, for which the inhibition of growth at 10 µM in assay [1] and in assay [2] was 99% each time.

As for `CCCCN(CCCC)Cc1cn(C/C=C(\C)CCC=C(C)C)c2ccc(F)cc12`, the inhibition of growth at 10 µM in assay [1] and in assay [2] was 99% each time.

On to `CCCCCCCCn1cc(CN2CCC(C)CC2)c2cc(F)ccc21`, for which the inhibition of growth at 10 µM in assay [1] and in assay [2] was 99% each time.

As to `CC(C)=CCC/C(C)=C/Cn1cc(CN2CCN(C)CC2)c2cc(F)ccc21`, the inhibition of growth at 10 µM in assay [1] and in assay [2] was 99% in each case.

Turning to `CCCCCCCCn1cc(CN2CCCCC2)c2c(F)cccc21`, the inhibition of growth at 10 µM in assay [1] and in assay [2] was 99% each time.

On to `CC(C)=CCC/C(C)=C/Cn1cc(CN2CCS(=O)(=O)CC2)c2cc(F)ccc21`, for which the inhibition of growth at 10 µM in assay [1] and in assay [2] was 99% throughout.

For the compound `CCCCCCCCn1cc(CN(CC)CCC)c2cc(F)ccc21`, the inhibition of growth at 10 µM in assay [1] and in assay [2] was 99% in each case.

Take `CC(C)=CCC/C(C)=C/Cn1cc(CN2CCOCC2)c2cc(F)ccc21`: the inhibition of growth at 10 µM in assay [1] and in assay [2] was 99% throughout.

Regarding `CCCCCCCCn1cc(CNC23CC4CC(CC(C4)C2)C3)c2cc(OC)ccc21`, the inhibition of growth at 10 µM in assay [1] and in assay [2] was 99% in each case.

Consider `CC(C)=CCC/C(C)=C/Cn1cc(CN2CCC(C)CC2)c2cc(F)ccc21`, for which the inhibition of growth at 10 µM in assay [1] and in assay [2] was 99% throughout.

`CCCCCCCCn1cc(CNC23CC4CC(CC(C4)C2)C3)c2cccc(F)c21`: the inhibition of growth at 10 µM in assay [1] and in assay [2] was 99% in each case.

As for `CCCCCCCCn1cc(CN(CC)CC)c2cc(F)ccc21`, the inhibition of growth at 10 µM in assay [1] and in assay [2] was 99% in each case.

For `COc1ccc2c(c1)c(CN1CCCCC1)cn2C/C=C(\C)CCC=C(C)C`, the inhibition of growth at 10 µM in assay [1] and in assay [2] was 99% each time.

Take `CCCCCCCCn1cc(CN2CCCCC2)c2cc(F)ccc21`: the inhibition of growth at 10 µM in assay [1] and in assay [2] was 99% in each case.

As to `CCCCCCCCn1cc(CN2CCC(C)CC2)c2cccc(OC)c21`, the inhibition of growth at 10 µM in assay [1] and in assay [2] was 99% throughout.

Take `CCCCCCCCn1cc(CN2CCN(C)CC2)c2cc(F)ccc21`: the inhibition of growth at 10 µM in assay [1] and in assay [2] was 99% each time.

On to `CCCCCCCCn1cc(CN2CCCCC2)c2ccccc21`, for which the inhibition of growth at 10 µM in assay [1] and in assay [2] was 99% in each case.

Take `CCCCCCCCn1cc(CN2CCCCCC2)c2ccc(OC)cc21`: the inhibition of growth at 10 µM in assay [1] and in assay [2] was 99% in each case.

With `O=C(Cn1cc(CN2CCCCC2)c2cc(F)ccc21)NC1CC1`, the inhibition of growth at 10 µM in assay [1] and in assay [2] was 99% in each case.

For the compound `CCN(CC)Cc1cn(C/C=C(\C)CCC=C(C)C)c2ccc(F)cc12`, the inhibition of growth at 10 µM in assay [1] and in assay [2] was 99% each time.
